Measured values reported in patent publication US20190127366A1 (LifeSci Pharmaceuticals, Inc., priority 2015, published 2019).

These compounds were tested against T1, human complement factor D (Homo sapiens, UniProt P00746) (assay: In vitro enzyme inhibition (Z-Lys-SBzl/DTNB absorbance assay)). Details: Complement Factor D (R&D Systems), substrate Z-Lys-SBzl, A405 nm; read-out: CFD IC50.
T1 construct: purchased R&D Systems 1824-SE
Format: biochemical
Procedure, shortened: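 Factor D (6.25 ng/μL before addition) preincubated 5 min RT with compound (8 points from 50 μM, 6-fold, 0.5% DMSO final) in 50 mM Tris/HCl pH 7.5, 1 M NaCl, then Z-Lys-SBzl/DTNB added (200 μM each before addition). A405 read kinetically every 30 s for 60 min; IC50 from variable-slope fit, controls with and without enzyme.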

T1 sequence (P00746 26-253): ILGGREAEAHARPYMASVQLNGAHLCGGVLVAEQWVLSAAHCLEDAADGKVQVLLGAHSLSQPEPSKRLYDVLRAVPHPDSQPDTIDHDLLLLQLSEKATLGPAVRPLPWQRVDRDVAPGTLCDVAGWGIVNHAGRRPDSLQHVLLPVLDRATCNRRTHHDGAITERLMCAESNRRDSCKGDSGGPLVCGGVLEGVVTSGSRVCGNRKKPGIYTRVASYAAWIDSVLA

| SMILES | IC50 [µM] |
| --- | --- |
| NC(=O)c1nn(CC(=O)N2[C@@H]3CC[C@@H](C3)[C@H]2C(=O)Nc2cc(CO)cc(Cl)n2)c2ccccc12 [Example 105, 1-(2-((1R,3S,4S)-3-((6-chloro-4-(hydroxymethyl)pyridin-2-yl)carbamoyl)-2-azabicyclo[2.2.1]heptan-2-yl)-2-oxoethyl)-1H-indazole-3-carboxamide] | 0.1 to 1 |
| NC(=O)c1cc(Cl)nc(NC(=O)[C@@H]2[C@H]3CC[C@H](C3)N2C(=O)Cn2nc(C(N)=O)c3ccccc32)c1 [Example 106, 1-(2-((1R,3S,4S)-3-((4-carbamoyl-6-chloropyridin-2-yl)carbamoyl)-2-azabicyclo[2.2.1]heptan-2-yl)-2-oxoethyl)-1H-indazole-3-carboxamide] | 0.1 to 1 |
| COC(=O)c1ccc(NC(=O)[C@@H]2[C@H]3CC[C@H](C3)N2C(=O)Cn2nc(C(N)=O)c3ccccc32)nc1Cl [Example 107, Methyl 6-((1R,3S,4S)-2-(2-(3-carbamoyl-1H-indazol-1-yl)acetyl)-2-azabicyclo[2.2.1]heptane-3-carboxamido)-2-chloronicotinate] | 1 to 10 |
| NC(=O)c1nn(CC(=O)N2[C@@H]3CC[C@@H](C3)[C@H]2C(=O)Nc2ccc(CO)c(Cl)n2)c2ccccc12 [Example 108, 1-(2-((1R,3S,4S)-3-((6-chloro-5-(hydroxymethyl)pyridin-2-yl)carbamoyl)-2-azabicyclo[2.2.1]heptan-2-yl)-2-oxoethyl)-1H-indazole-3-carboxamide] | 1 to 10 |
| NC(=O)c1nn(CC(=O)N2[C@@H]3CC[C@@H](C3)[C@H]2C(=O)NCc2cc(Br)cc(Cl)c2F)c2ccccc12 [Example 109, 1-(2-((1R,3S,4S)-3-((5-bromo-3-chloro-2-fluorobenzyl)carbamoyl)-2-azabicyclo[2.2.1]heptan-2-yl)-2-oxoethyl)-1H-indazole-3-carboxamide] | 0.1 to 1 |
| COC(=O)c1cc(Cl)c(F)c(CNC(=O)[C@@H]2[C@H]3CC[C@H](C3)N2C(=O)Cn2nc(C(N)=O)c3ccccc32)c1 [Example 110, methyl 3-(((1R,3S,4S)-2-(2-(3-carbamoyl-1H-indazol-1-yl)acetyl)-2-azabicyclo[2.2.1]heptane-3-carboxamido)methyl)-5-chloro-4-fluorobenzoate] | 1 to 10 |
| NC(=O)c1nn(CC(=O)N2[C@@H]3CC[C@@H](C3)[C@H]2C(=O)NCc2cc(C(=O)O)cc(Cl)c2F)c2ccccc12 [Example 111, 3-(((1R,3S,4S)-2-(2-(3-carbamoyl-1H-indazol-1-yl)acetyl)-2-azabicyclo[2.2.1]heptane-3-carboxamido)methyl)-5-chloro-4-fluorobenzoic acid] | 0.1 to 1 |
| NC(=O)c1cc(Cl)c(F)c(CNC(=O)[C@@H]2[C@H]3CC[C@H](C3)N2C(=O)Cn2nc(C(N)=O)c3ccccc32)c1 [Example 112, 1-(2-((1R,3S,4S)-3-((5-carbamoyl-3-chloro-2-fluorobenzyl)carbamoyl)-2-azabicyclo[2.2.1]heptan-2-yl)-2-oxoethyl)-1H-indazole-3-carboxamide] | 1 to 10 |
| N#Cc1cc(Cl)c(F)c(CNC(=O)[C@@H]2[C@H]3CC[C@H](C3)N2C(=O)Cn2nc(C(N)=O)c3ccccc32)c1 [Example 113, 1-(2-((1R,3S,4S)-3-((3-chloro-5-cyano-2-fluorobenzyl)carbamoyl)-2-azabicyclo[2.2.1]heptan-2-yl)-2-oxoethyl)-1H-indazole-3-carboxamide] | 1 to 10 |
| NC(=O)c1nn(CC(=O)N2[C@@H]3CC[C@@H](C3)[C@H]2C(=O)NCc2cc(CO)cc(Cl)c2F)c2ccccc12 [Example 114, 1-(2-((1R,3S,4S)-3-((3-chloro-2-fluoro-5-(hydroxymethyl)benzyl)carbamoyl)-2-azabicyclo[2.2.1]heptan-2-yl)-2-oxoethyl)-1H-indazole-3-carboxamide] | 1 to 10 |
| NC(=O)c1nn(CC(=O)N2[C@@H]3CC[C@@H](C3)[C@H]2C(=O)NCc2c(Br)ccc(Cl)c2F)c2ccccc12 [Example 115, 1-(2-((1R,3S,4S)-3-((6-bromo-3-chloro-2-fluorobenzyl)carbamoyl)-2-azabicyclo[2.2.1]heptan-2-yl)-2-oxoethyl)-1H-indazole-3-carboxamide] | 1 to 10 |
| COC(=O)c1ccc(Cl)c(F)c1CNC(=O)[C@@H]1[C@H]2CC[C@H](C2)N1C(=O)Cn1nc(C(N)=O)c2ccccc21 [Example 116, methyl 2-(((1R,3S,4S)-2-(2-(3-carbamoyl-1H-indazol-1-yl)acetyl)-2-azabicyclo[2.2.1]heptane-3-carboxamido)methyl)-4-chloro-3-fluorobenzoate] | 1 to 10 |
| NC(=O)c1nn(CC(=O)N2[C@@H]3CC[C@@H](C3)[C@H]2C(=O)NCc2c(C(=O)O)ccc(Cl)c2F)c2ccccc12 [Example 117, 2-(((1R,3S,4S)-2-(2-(3-carbamoyl-1H-indazol-1-yl)acetyl)-2-azabicyclo[2.2.1]heptane-3-carboxamido)methyl)-4-chloro-3-fluorobenzoic acid] | 1 to 10 |
| NC(=O)c1ccc(Cl)c(F)c1CNC(=O)[C@@H]1[C@H]2CC[C@H](C2)N1C(=O)Cn1nc(C(N)=O)c2ccccc21 [Example 118, 1-(2-((1R,3S,4S)-3-((6-carbamoyl-3-chloro-2-fluorobenzyl)carbamoyl)-2-azabicyclo[2.2.1]heptan-2-yl)-2-oxoethyl)-1H-indazole-3-carboxamide] | 1 to 10 |
| N#Cc1ccc(Cl)c(F)c1CNC(=O)[C@@H]1[C@H]2CC[C@H](C2)N1C(=O)Cn1nc(C(N)=O)c2ccccc21 [Example 119, 1-(2-((1R,3S,4S)-3-((3-chloro-6-cyano-2-fluorobenzyl)carbamoyl)-2-azabicyclo[2.2.1]heptan-2-yl)-2-oxoethyl)-1H-indazole-3-carboxamide] | 1 to 10 |
| NC(=O)c1nn(CC(=O)N2[C@@H]3CC[C@@H](C3)[C@H]2C(=O)NCc2c(CO)ccc(Cl)c2F)c2ccccc12 [Example 120, 1-(2-((1R,3S,4S)-3-((3-chloro-2-fluoro-6-(hydroxymethyl)benzyl)carbamoyl)-2-azabicyclo[2.2.1]heptan-2-yl)-2-oxoethyl)-1H-indazole-3-carboxamide] | 1 to 10 |
| NC(=O)c1ccc2c(c1)c(C(N)=O)nn2CC(=O)N1[C@@H]2CC[C@@H](C2)[C@H]1C(=O)Nc1cccc(Cl)n1 [Example 121, 1-(2-((1R,3S,4S)-3-((6-chloropyridin-2-yl)carbamoyl)-2-azabicyclo[2.2.1]heptan-2-yl)-2-oxoethyl)-1H-indazole-3,5-dicarboxamide] | 0.1 to 1 |
| NC(=O)c1ccc2c(C(N)=O)nn(CC(=O)N3[C@@H]4CC[C@@H](C4)[C@H]3C(=O)Nc3cccc(Cl)n3)c2c1 [Example 124, 1-(2-((1R,3S,4S)-3-((6-chloropyridin-2-yl)carbamoyl)-2-azabicyclo[2.2.1]heptan-2-yl)-2-oxoethyl)-1H-indazole-3,6-dicarboxamide] | 0.1 to 1 |
| COC(=O)Cc1ccc2c(C(N)=O)nn(CC(=O)N3[C@@H]4CC[C@@H](C4)[C@H]3C(=O)NCc3cccc(Cl)c3F)c2c1 [Example 126, methyl 2-(3-carbamoyl-1-(2-((1R,3S,4S)-3-((3-chloro-2-fluorobenzyl)carbamoyl)-2-azabicyclo[2.2.1]heptan-2-yl)-2-oxoethyl)-1H-indazol-6-yl)acetate] | 1 to 10 |
| NC(=O)c1nn(CC(=O)N2[C@@H]3CC[C@@H](C3)[C@H]2C(=O)NCc2cccc(Cl)c2F)c2cc(CC(=O)O)ccc12 [Example 127, 2-(3-carbamoyl-1-(2-((1R,3S,4S)-3-((3-chloro-2-fluorobenzyl)carbamoyl)-2-azabicyclo[2.2.1]heptan-2-yl)-2-oxoethyl)-1H-indazol-6-yl)acetic acid] | 1 to 10 |
| NC(=O)Cc1ccc2c(C(N)=O)nn(CC(=O)N3[C@@H]4CC[C@@H](C4)[C@H]3C(=O)NCc3cccc(Cl)c3F)c2c1 [Example 128, 6-(2-amino-2-oxoethyl)-1-(2-((1R,3S,4S)-3-((3-chloro-2-fluorobenzyl)carbamoyl)-2-azabicyclo[2.2.1]heptan-2-yl)-2-oxoethyl)-1H-indazole-3-carboxamide] | 1 to 10 |
| NC(=O)c1nn(CC(=O)N2[C@@H]3CC[C@@H](C3)[C@H]2C(=O)NCc2cccc(Cl)c2F)c2cc(CCO)ccc12 [Example 129, 1-(2-((1R,3S,4S)-3-((3-chloro-2-fluorobenzyl)carbamoyl)-2-azabicyclo[2.2.1]heptan-2-yl)-2-oxoethyl)-6-(2-hydroxyethyl)-1H-indazole-3-carboxamide] | 1 to 10 |
| COC(=O)Cc1ccc2c(c1)c(C(N)=O)nn2CC(=O)N1[C@@H]2CC[C@@H](C2)[C@H]1C(=O)NCc1cccc(Cl)c1F [Example 130, methyl 2-(3-carbamoyl-1-(2-((1R,3S,4S)-3-((3-chloro-2-fluorobenzyl)carbamoyl)-2-azabicyclo[2.2.1]heptan-2-yl)-2-oxoethyl)-1H-indazol-5-yl)acetate] | 0.1 to 1 |
| NC(=O)c1nn(CC(=O)N2[C@@H]3CC[C@@H](C3)[C@H]2C(=O)NCc2cccc(Cl)c2F)c2ccc(CC(=O)O)cc12 [Example 131] | 1 to 10 |
| NC(=O)c1nn(CC(=O)N2[C@@H]3CC[C@@H](C3)[C@H]2C(=O)NCc2cccc(Cl)c2F)c2ccc(CCO)cc12 [Example 132] | 1 to 10 |
| NC(=O)Cc1ccc2c(c1)c(C(N)=O)nn2CC(=O)N1[C@@H]2CC[C@@H](C2)[C@H]1C(=O)NCc1cccc(Cl)c1F [Example 133, 5-(2-amino-2-oxoethyl)-1-(2-((1R,3S,4S)-3-((3-chloro-2-fluorobenzyl)carbamoyl)-2-azabicyclo[2.2.1]heptan-2-yl)-2-oxoethyl)-1H-indazole-3-carboxamide] | 1 to 10 |
